The values below come from US11590139B2, “Substituted aminopurine compounds, compositions thereof, and methods of treatment therewith” (Signal Pharmaceuticals, LLC, priority 2014, dated 2023).

Some results are limits rather than exact numbers.

The first test relates to Lox-IMVI melanoma cell line. Put plainly: Lox-IMVI anti-proliferative assay (growth inhibition, Cell Titer-Glo). To be noted: Homo sapiens; IC50 activity level in the cell-based Lox-IMVI anti-proliferative assay; read-out: Activity. The class given is cell-based, human. The procedure, abridged:
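Lox-IMVI cells in RPMI+10% FBS exposed 72 h at 37 °C to 10-point, 3-fold dilutions (0.5 nM–10 μM; 0.2% DMSO final), in duplicate. Viability by Cell Titer-Glo luminescence, with a t0 cell-number reading; data as % of DMSO control; IC50 from a four-parameter logistic fit.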
(In general: ATP-based viability assays read luminescence as a measure of living cells.)
As for `NC(=O)[C@H]1CC[C@@H](n2c(Nc3c(Cl)cc(F)cc3Cl)nc3cnc(N[C@@H]4CCC[C@H](O)C4)nc32)CC1` [Example 354, (1S,4s)-4-(8-(2,6-dichloro-4-fluorophenylamino)-2-((1R,3S)-3-hydroxycyclohexylamino)-9H-purin-9-yl)cyclohexanecarboxamide], the IC50 was 500 to 1000 nM. Turning to `C[C@@H]1CC[C@@H](Nc2ncc3nc(Nc4c(F)cc(F)cc4Cl)n([C@H]4CC[C@@H](C(N)=O)CC4)c3n2)C[C@H]1O` [Example 344, (1S,4s)-4-(8-(2-chloro-4,6-difluorophenylamino)-2-((1R,3R,4R)-3-hydroxy-4-methylcyclohexylamino)-9H-purin-9-yl)cyclohexanecarboxamide], the IC50 was over 1000 nM. For the compound `C[C@@H]1CC[C@@H](Nc2ncc3nc(Nc4ccc(Cl)c(F)c4F)n([C@H]4CC[C@@H](C(N)=O)CC4)c3n2)C[C@H]1O` [Example 357, (1S,4s)-4-(8-(4-chloro-2,3-difluorophenylamino)-2-((1R,3R,4R)-3-hydroxy-4-methylcyclohexylamino)-9H-purin-9-yl)cyclohexanecarboxamide], the IC50 was over 1000 nM. Regarding `NC(=O)[C@H]1CC[C@@H](n2c(Nc3c(F)cc(Cl)cc3F)nc3cnc(N[C@H]4CCOC4)nc32)CC1` [Example 242, (1R,4s)-4-(8-(4-chloro-2,6-difluorophenylamino)-2-((S)-tetrahydrofuran-3-ylamino)-9H-purin-9-yl)cyclohexanecarboxamide], the IC50 lay within 500 to 1000 nM. With `NC(=O)[C@H]1CC[C@@H](n2c(Nc3c(F)cc(F)cc3Cl)nc3cnc(NC4CCOCC4)nc32)CC1` [Example 53], the IC50 was under 250 nM. Consider `CC(C)Nc1ncc2nc(Nc3c(F)ccc(F)c3F)n([C@H]3CC[C@@H](C(N)=O)CC3)c2n1` [Example 98, (1s,4s)-4-(2-(isopropylamino)-8-(2,3,6-trifluorophenylamino)-9H-purin-9-yl)cyclohexanecarboxamide], for which the IC50 is over 1000 nM. Turning to `NC(=O)[C@H]1CC[C@@H](n2c(Nc3ccc(Cl)cc3Cl)nc3cnc(N[C@H]4COC[C@@H]4O)nc32)CC1` [Example 319, (1R,4s)-4-(8-(2,4-dichlorophenylamino)-2-((3S,4R)-4-hydroxytetrahydrofuran-3-ylamino)-9H-purin-9-yl)cyclohexanecarboxamide], the IC50 was over 1000 nM. With `NC(=O)[C@H]1CC[C@@H](n2c(Nc3c(Cl)cc(Cl)cc3Cl)nc3cnc(NC4CC(F)(F)C4)nc32)CC1` [Example 224, (1s,4s)-4-(2-(3,3-difluorocyclobutylamino)-8-(2,4,6-trichlorophenylamino)-9H-purin-9-yl)cyclohexanecarboxamide], the IC50 was over 1000 nM. In the case of `NC(=O)[C@H]1CC[C@@H](n2c(Nc3ccc(Cl)cc3Cl)nc3cnc(N[C@@H]4CC[C@@H](O)C4)nc32)CC1` [Example 219, (1S,4s)-4-(8-(2,4-dichlorophenylamino)-2-((1R,3R)-3-hydroxycyclopentylamino)-9H-purin-9-yl)cyclohexanecarboxamide], the IC50 is over 1000 nM. For the compound `NC(=O)[C@H]1CC[C@@H](n2c(Nc3c(F)cc(Cl)cc3Cl)nc3cnc(NC4CC5(COC5)C4)nc32)CC1` [Example 195, (1s,4s)-4-(2-(2-oxaspiro[3.3]heptan-6-ylamino)-8-(2,4-dichloro-6-fluorophenylamino)-9H-purin-9-yl)cyclohexanecarboxamide], the IC50 is 250 to 500 nM. The same measure, in the same setting: to `C[C@@H](CO)Nc1ncc2nc(Nc3c(F)cc(F)cc3Cl)n([C@H]3CC[C@@H](C(N)=O)CC3)c2n1` [Example 136, (1R,4s)-4-(8-(2-chloro-4,6-difluorophenylamino)-2-((S)-1-hydroxypropan-2-ylamino)-9H-purin-9-yl)cyclohexanecarboxamide] belongs 500 to 1000 nM.

With `NC(=O)[C@H]1CC[C@@H](n2c(Nc3c(F)cccc3Cl)nc3cnc(N[C@H]4C[C@H](O)C4)nc32)CC1` [Example 281, (1s,4s)-4-(8-(2-chloro-6-fluorophenylamino)-2-((1R,3r)-3-hydroxycyclobutylamino)-9H-purin-9-yl)cyclohexanecarboxamide], the IC50 is over 1000 nM. Regarding `NC(=O)[C@H]1CC[C@@H](n2c(Nc3c(F)ccc(Cl)c3F)nc3cnc(NC4CC5(COC5)C4)nc32)CC1` [Example 196, (1s,4s)-4-(2-(2-oxaspiro[3.3]heptan-6-ylamino)-8-(3-chloro-2,6-difluorophenylamino)-9H-purin-9-yl)cyclohexanecarboxamide], the IC50 was over 1000 nM.

Still in this test, the particulars now being: Homo sapiens; Lox-IMVI anti-proliferative assay, IC50 activity level; read-out: Activity.
As for `N#Cc1cc(F)c(Nc2nc3cnc(NC4CC(F)(F)C4)nc3n2[C@H]2CC[C@@H](C(N)=O)CC2)c(F)c1` [Example 401, (1s,4s)-4-(8-(4-cyano-2,6-difluorophenylamino)-2-(3,3-difluorocyclobutylamino)-9H-purin-9-yl)cyclohexanecarboxamide], the IC50 was over 1000 nM.

In the case of `C[C@]1(O)CCC[C@@H](Nc2ncc3nc(Nc4c(F)cc(F)cc4Cl)n([C@H]4CC[C@@H](C(N)=O)CC4)c3n2)C1` [Example 425, (1S,4s)-4-(8-(2-chloro-4,6-difluorophenylamino)-2-((1R,3S)-3-hydroxy-3-methylcyclohexylamino)-9H-purin-9-yl)cyclohexanecarboxamide], the IC50 is over 1000 nM. Same read-out and setting: to `NC(=O)[C@H]1CC[C@@H](n2c(Nc3c(F)cc(F)cc3F)nc3cnc(N[C@@H]4CCOC4)nc32)CC1` [Example 530, (1S,4s)-4-(2-((R)-tetrahydrofuran-3-ylamino)-8-(2,4,6-trifluorophenylamino)-9H-purin-9-yl)cyclohexanecarboxamide] belongs 500 to 1000 nM; to `NC(=O)[C@H]1CC[C@@H](n2c(Nc3c(F)cccc3F)nc3cnc(N[C@@H]4CCC[C@@H](O)C4)nc32)CC1` [Example 419, (1S,4s)-4-(8-(2,6-difluorophenylamino)-2-((1R,3R)-3-hydroxycyclohexylamino)-9H-purin-9-yl)cyclohexanecarboxamide], over 1000 nM. With `NC(=O)[C@H]1CC[C@@H](n2c(Nc3c(Cl)cc(Cl)cc3Cl)nc3cnc(N[C@H]4CCC(F)(F)C4)nc32)CC1` [Example 594, (1R,4s)-4-(2-((S)-3,3-difluorocyclopentylamino)-8-(2,4,6-trichlorophenylamino)-9H-purin-9-yl)cyclohexanecarboxamide], the IC50 fell in the range of 250 to 500 nM. In the case of `C[C@]1(C(N)=O)CC[C@@H](n2c(Nc3c(F)cc(F)cc3F)nc3cnc(NC4CC(F)(F)C4)nc32)CC1` [Example 578, (1s,4s)-4-(2-(3,3-difluorocyclobutylamino)-8-(2,4,6-trifluorophenylamino)-9H-purin-9-yl)-1-methylcyclohexanecarboxamide], the IC50 was under 250 nM. For `C[C@@H]1COCC[C@H]1Nc1ncc2nc(Nc3c(Cl)cc(Cl)cc3Cl)n([C@H]3CC[C@@H](C(N)=O)CC3)c2n1` [Example 499, (1S,4s)-4-(2-((3S,4R)-3-methyltetrahydro-2H-pyran-4-ylamino)-8-(2,4,6-trichlorophenylamino)-9H-purin-9-yl)cyclohexanecarboxamide], the IC50 is under 250 nM.

Staying with this test, now noted: Homo sapiens; Lox-IMVI melanoma cell line, anti-proliferative assay; read-out: Activity (IC50 activity level).
Take `CS(=O)(=O)N1CCC[C@@H](Nc2ncc3nc(Nc4c(F)cc(C#N)cc4Cl)n([C@H]4CC[C@@H](C(N)=O)CC4)c3n2)C1` [Example 704, (1S,4s)-4-(8-(2-chloro-4-cyano-6-fluorophenylamino)-2-((R)-1-(methylsulfonyl)piperidin-3-ylamino)-9H-purin-9-yl)cyclohexanecarboxamide]: the IC50 was over 1000 nM. Still for that read-out and setting: to `C[C@]1(C(N)=O)CC[C@@H](n2c(Nc3c(Cl)cc(C(F)(F)F)cc3Cl)nc3cnc(NC4CCC4)nc32)CC1` [Example 602, (1s,4s)-4-(2-(cyclobutylamino)-8-(2,6-dichloro-4-(trifluoromethyl)phenylamino)-9H-purin-9-yl)-1-methylcyclohexanecarboxamide] belongs over 1000 nM; to `C[C@]1(C(N)=O)CC[C@@H](n2c(Nc3c(F)cc(F)cc3F)nc3cnc(N[C@H]4CC[C@H](O)C4)nc32)CC1` [Example 643, (1R,4s)-4-(2-((1S,3S)-3-hydroxycyclopentylamino)-8-(2,4,6-trifluorophenylamino)-9H-purin-9-yl)-1-methylcyclohexanecarboxamide], 500 to 1000 nM; to `C[C@]1(C(N)=O)CC[C@@H](n2c(Nc3c(F)cc(C#N)cc3Cl)nc3cnc(N[C@H]4CCC[C@H](O)C4)nc32)CC1` [Example 615, (1R,4s)-4-(8-(2-chloro-4-cyano-6-fluorophenylamino)-2-((1S,3S)-3-hydroxycyclohexylamino)-9H-purin-9-yl)-1-methylcyclohexanecarboxamide], under 250 nM. With `NC(=O)[C@H]1CC[C@@H](n2c(Nc3c(F)cc(F)cc3F)nc3cnc(N[C@@H]4CCCN(Cc5ccccc5)C4)nc32)CC1` [Example 756, (1S,4s)-4-(2-((R)-1-benzylpiperidin-3-ylamino)-8-(2,4,6-trifluorophenylamino)-9H-purin-9-yl)cyclohexanecarboxamide], the IC50 is over 1000 nM. Turning to `CC(=O)N1CCC[C@@H](Nc2ncc3nc(Nc4c(F)cc(Cl)cc4F)n([C@H]4CC[C@@H](C(N)=O)CC4)c3n2)C1` [Example 713, (1S,4s)-4-(2-((R)-1-acetylpiperidin-3-ylamino)-8-(4-chloro-2,6-difluorophenylamino)-9H-purin-9-yl)cyclohexanecarboxamide], the IC50 is over 1000 nM.

Turning to `NC(=O)[C@H]1CC[C@@H](n2c(Nc3c(Cl)cc(F)cc3Cl)nc3cnc(N[C@@H]4CCCN(c5ccccc5)C4)nc32)CC1` [Example 749, (1S,4s)-4-(8-(2,6-dichloro-4-fluorophenylamino)-2-((R)-1-phenylpiperidin-3-ylamino)-9H-purin-9-yl)cyclohexanecarboxamide], the IC50 is over 1000 nM.

For the compound `CC(C)N1CCC[C@@H](Nc2ncc3nc(Nc4c(F)cc(Cl)cc4Cl)n([C@H]4CC[C@@H](C(N)=O)CC4)c3n2)C1` [Example 741, (1S,4s)-4-(8-(2,4-dichloro-6-fluorophenylamino)-2-((R)-1-isopropylpiperidin-3-ylamino)-9H-purin-9-yl)cyclohexanecarboxamide], the IC50 was over 1000 nM.
